The values below come from patent publication US6515140B2, “Fused pyrrolecarboxamides; a new class of GABA brain receptor ligands” (Neurogen Corporation, priority 1996, dated 2003).

Compound `O=C(Nc1ccc(OCCC2CCCCN2)cc1)c1c[nH]c2c1C(=O)CCC2` (stereo not shown) [Compound 94, N-[4-(2-Piperidin-2-ylethoxy)phenyl]-4-oxo-4,5,6,7-tetrahydro-1H-indole-3-carboxamide] registered a melting point of 281 to 285 °C.

As for `CNCc1ccc(NC(=O)c2c[nH]c3c2C(=O)CCC3)cc1` [Compound 19, N-[4-(Methylaminomethyl)phenyl]-4-oxo-4,5,6,7-tetrahydro-1H-indole-3-carboxamide], the melting point fell in the range of 217 to 219 °C.

As for `CCCN(CCC)CCNC(=O)COc1ccc(NC(=O)c2c[nH]c3c2C(=O)CCC3)cc1` [Compound 228, N-[2-(dipropylamino)ethyl]-2-{4-[(4-oxo-(4,5,6,7-tetrahydroindol-3-yl))carbonylamino]phenoxy}acetamide], the melting point fell in the range of 148 to 150 °C.

As to `CCNCCOc1ccc(NC(=O)c2c[nH]c3c2C(=O)CCC3)cc1` [Compound 62, N-[4-(2-Ethylaminoethoxy)phenyl]-4-oxo-4,5,6,7-tetrahydro-1H-indole-3-carboxamide], the melting point is 140 to 141 °C.

For `O=C(Nc1cnccc1OCCN1CCCC1)c1c[nH]c2c1C(=O)CCC2` [Compound 124, N-[4-(2-Pyrrolidin-1-ylethoxy)pyrid-3-yl]-4-oxo-4,5,6,7-tetrahydro-1H-indole-3-carboxamide], the melting point was in the range of 148 to 150 °C.

As for `CC(C)NCCOc1ccncc1NC(=O)c1c[nH]c2c1C(=O)CCC2.Cl`, the melting point is 167 to 169 °C.

Turning to `CC1(C)CCc2[nH]cc(C(=O)Nc3ccc4c(c3)OCCO4)c2C1=O` [Compound 37, N-(2,3-Dihydro-1,4-benzodioxin-6-yl)-4-oxo-5,5-dimethyl-4,5,6,7-tetrahydro-1H-indole-3-carboxamide], the melting point was 241 to 243 °C.

Regarding `CC1CC(=O)c2c(C(=O)Nc3ccc(CO)cc3)c[nH]c2C1` (stereo not shown) [Compound 28, N-[4-(Hydroxymethyl)phenyl]-4-oxo-6-methyl-4,5,6,7-tetrahydro-1H-indole-3-carboxamide], the melting point is 260 to 262 °C.

Turning to `Cl.O=C(Nc1cnccc1OCCN1CCCC1)c1c[nH]c2c1C(=O)CCC2`, the melting point was 188 to 245 °C (dec.).

The compound `CCCNCCOc1ccncc1NC(=O)c1c[nH]c2c1C(=O)CCC2.Cl` had a melting point of 177 to 178 °C.

The compound `Cl.O=C(Nc1cnccc1OCc1cccnc1)c1c[nH]c2c1C(=O)CCC2` displayed a melting point of 276 to 277 °C.

`COCc1ccc(NC(=O)c2c[nH]c3c2C(=O)CCC3)cc1` [Compound 18, N-[4-(Methoxymethyl)phenyl]-4-oxo-4,5,6,7-tetrahydro-1H-indole-3-carboxamide] showed a melting point of 164 to 165 °C.

As to `O=C(Nc1cnccc1OCc1cccnc1)c1c[nH]c2c1C(=O)CCCC2` [Compound 194, N-[4-(Pyrid-3-ylmethoxy)pyrid-3-yl]-4-oxo-1,4,5,6,7,8-hexahydro-cyclohepta[b]pyrrole-3-carboxamide], the melting point is 241 to 243 °C.

`O=C(O)COc1ccc(NC(=O)c2c[nH]c3c2C(=O)CCC3)cc1F` [Compound 223, N-[3-Fluoro-4-(2-hydroxy-2-oxoethoxy)phenyl]-4-oxo-4,5,6,7-tetrahydro-1H-indole-3-carboxamide] had a melting point of 246 to 248 °C.

Consider `O=C(Nc1ccc(OCC(=O)N2CCOCC2)c(F)c1)c1c[nH]c2c1C(=O)CCC2` [Compound 232, N-[3-fluoro-4-(2-morpholin-4-yl-2-oxoethoxy)phenyl](4-oxo-(4,5,6,7-tetrahydroindol-3-yl))carboxamide], for which the melting point was 110 °C.

The compound `CN(C)CCCOc1ccncc1NC(=O)c1c[nH]c2c1C(=O)CCC2` [Compound 123, N-[4-(3-Dimethylaminopropoxy)pyrid-3-yl]-4-oxo-4,5,6,7-tetrahydro-1H-indole-3-carboxamide] yielded a melting point of 247 °C.

As to `CN(C)CCOc1ccncc1NC(=O)c1c[nH]c2c1C(=O)CCC2` [Compound 122, N-[4-(2-Dimethylaminoethoxy)pyrid-3-yl]-4-oxo-4,5,6,7-tetrahydro-1H-indole-3-carboxamide], the melting point fell in the range of 163 to 166 °C.

`Cl.O=C(Nc1ccc(OCC2CCCNC2)cc1)c1c[nH]c2c1C(=O)CCC2` (stereo not shown) yielded a melting point of 196 to 199 °C.

`CN1CCC(COc2ccncc2NC(=O)c2c[nH]c3c2C(=O)CCC3)C1` (stereo not shown) [Compound 131, N-{4-[(1-Methyl-pyrrolidin-3-yl)methoxy]pyrid-3-yl}-4-oxo-4,5,6,7-tetrahydro-1H-indole-3-carboxamide] registered a melting point of 209 to 211 °C.

The compound `CNCc1ccc(NC(=O)c2c[nH]c3c2C(=O)CC(C)C3)cc1` (stereo not shown) [Compound 27, N-[4-(Methylaminomethyl)phenyl]-4-oxo-6-methyl-4,5,6,7-tetrahydro-1H-indole-3-carboxamide] had a melting point of 217 to 219 °C.

In the case of `CC1(C)CC(=O)c2c(C(=O)Nc3ccc(CO)cc3)c[nH]c2C1` [Compound 31, N-[4-(Hydroxymethyl)phenyl]-4-oxo-6,6-dimethyl-4,5,6,7-tetrahydro-1H-indole-3-carboxamide], the melting point lay in the range of 245 to 247 °C.

In turn, `O=C(Nc1ccc2c(c1)OCO2)c1c[nH]c2c1C(=O)CCCC2` [Compound 39, N-(1,3-Benzodioxol-5-yl)-4-oxo-1,4,5,6,7,8-hexahydro-cyclohepta[b]pyrrole-3-carboxamide] displayed a melting point of 210 to 212 °C.

`CC1(C)CCc2[nH]cc(C(=O)Nc3ccc4c(c3)OCOC4)c2C1=O` [Compound 38, N-(4H-1,3-Benzodioxin-7-yl)-4-oxo-5,5-dimethyl-4,5,6,7-tetrahydro-1H-indole-3-carboxamide] had a melting point of 251 to 252 °C.

Turning to `CC1(C)CC(=O)c2c(C(=O)Nc3ccc4c(c3)OCO4)c[nH]c2C1` [Compound 43, N-(1,3-Benzodioxol-5-yl)-4-oxo-6,6-dimethyl-4,5,6,7-tetrahydro-1H-indole-3-carboxamide], the melting point lay in the range of 245 to 246 °C.

For `CCCNCCOc1ccc(NC(=O)c2c[nH]c3c2C(=O)CCC3)cc1F.Cl`, the melting point came to 373 °C.

Compound `O=C(Nc1ccc2c(c1)CCN2)c1c[nH]c2c1C(=O)CCC2` [Compound 35, N-(2,3-Dihydro-1H-indol-5-yl)4-oxo-4,5,6,7-tetrahydro-1H-indole-3-carboxamide] displayed a melting point of 283 to 286 °C.

Compound `CCCCNCCOc1ccncc1NC(=O)c1c[nH]c2c1C(=O)CCC2.Cl` returned a melting point of 157 to 159 °C.

Regarding `CC(C)NCc1ccc(NC(=O)c2c[nH]c3c2C(=O)CCC3)cc1` [Compound 22, N-[4-(Isopropylaminomethyl)phenyl]-4-oxo-4,5,6,7-tetrahydro-1H-indole-3-carboxamide], the melting point lay within 164 to 166 °C.

Turning to `O=C(Nc1ccc(OCCn2ccnc2)cc1)c1c[nH]c2c1C(=O)CCC2` [Compound 91, N-[4-(2-Imidaz-1-ylethoxy)phenyl]-4-oxo-4,5,6,7-tetrahydro-1H-indole-3-carboxamide], the melting point lay within 226 to 230 °C.

`CCCCNCCOc1ccc(NC(=O)c2c[nH]c3c2C(=O)CCC3)cc1.Cl` had a melting point of 187 to 190 °C.

Consider `CC(C)(C)NCCOc1ccc(NC(=O)c2c[nH]c3c2C(=O)CCC3)cc1` [Compound 81, N-[4-(2-t-Butylaminoethoxy)phenyl]-4-oxo-4,5,6,7-tetrahydro-1H-indole-3-carboxamide], for which the melting point was 290 to 292 °C.

With `O=C(Nc1ccc(OC[C@@H]2CCCN2)cc1)c1c[nH]c2c1C(=O)CCC2` [Compound 85, N-{4-[(S)-Pyrrolidin-2-ylmethoxy]phenyl}-4-oxo-4,5,6,7-tetrahydro-1H-indole-3-carboxamide], the melting point lay within 165 to 167 °C.

In turn, `CCCNCCOc1ccc(NC(=O)c2c[nH]c3c2C(=O)CCC3)cc1` [Compound 64, N-[4-(2-n-Propylaminoethoxy)phenyl]-4-oxo-4,5,6,7-tetrahydro-1H-indole-3-carboxamide] showed a melting point of 130 to 133 °C.

As for `CC1CC(=O)c2c(C(=O)Nc3ccc4c(c3)OCCO4)c[nH]c2C1` (stereo not shown) [Compound 42, N-(2,3-Dihydro-1,4-benzodioxin-6-yl)-4-oxo-6-methyl-4,5,6,7-tetrahydro-1H-indole-3-carboxamide], the melting point is 290 to 292 °C.

In the case of `O=C(Nc1ccc(OCCO)cc1)c1c[nH]c2c1C(=O)CCC2` [Compound 16, N-[4-(Hydroxyethoxy)phenyl]-4-oxo-4,5,6,7-tetrahydro-1H-indole-3-carboxamide], the melting point fell in the range of 245 to 247 °C.

Regarding `O=C(Nc1ccc(OCCNCC2CC2)cc1F)c1c[nH]c2c1C(=O)CCC2` [Compound 72, N-[2-Fluoro-4-(2-Cyclopropylmethylaminoethoxy)phenyl]-4-oxo-4,5,6,7-tetrahydro-1H-indole-3-carboxamide], the melting point was in the range of 247 to 250 °C.

As to `CCNCCOc1ccc(NC(=O)c2c[nH]c3c2C(=O)CCCC3)cc1.Cl`, the melting point lay within 227 to 228 °C.

Compound `CCOC(=O)COc1ccc(NC(=O)c2c[nH]c3c2C(=O)CCC3)cc1F` [Compound 222, N-[3-Fluoro-4-(2-ethoxy-2-oxoethoxy)phenyl]-4-oxo-4,5,6,7-tetrahydro-1H-indole-3-carboxamide] returned a melting point of 192 to 196 °C.

In the case of `O=C(Nc1ccc(CCN2CCCC2)cc1)c1c[nH]c2c1C(=O)CCC2` [Compound 59, N-[4-(2-Pyrrolidin-1-ylethyl)phenyl]-4-oxo-4,5,6,7-tetrahydro-1H-indole-3-carboxamide], the melting point lay within 184 to 186 °C.

Regarding `CC1(C)CC(=O)c2c(C(=O)Nc3ccc(OCCO)cc3)c[nH]c2C1` [Compound 30, N-[4-(2-Hydroxyethoxy)phenyl]-4-oxo-6,6-dimethyl-4,5,6,7-tetrahydro-1H-indole-3-carboxamide], the melting point is 268 to 270 °C.

With `Cl.O=C(Nc1cnccc1OCc1ccncc1)c1c[nH]c2c1C(=O)CCCC2`, the melting point is 235 to 240 °C (dec.).

Regarding `CC1(C)CC(=O)c2c(C(=O)Nc3ccc4c(c3)OCOC4)c[nH]c2C1` [Compound 45, N-(4H-1,3-Benzodioxin-7-yl)-4-oxo-6,6-dimethyl-4,5,6,7-tetrahydro-1H-indole-3-carboxamide], the melting point was 234 to 236 °C.

`CCCNCCOc1ccncc1NC(=O)c1c[nH]c2c1C(=O)CCCC2.Cl` showed a melting point of 210 °C.

In general, melting point refers to the temperature of the solid-liquid transition.
